Assay results reported in US20190119284A1, “ErbB Inhibitors and Uses Thereof” (The Regents of the University of California, priority 2016, published 2019).
Several values for one entry are separate records, joined by “and”; a condition that tells them apart may be missing. Equal values may be shown once. Read-outs that look alike come from different tables or passages of the source.

Experiments:
[1] = Mouse Liver Microsome stability assay; assay type: in vitro ADME; conditions: mouse liver microsomes
[2] = Pharmacokinetic study, IP administration in male CD-1 mice; assay type: in vivo
[3] = Pharmacokinetic study, IV administration in male CD-1 mice; assay type: in vivo
[4] = IP 2.0 mg/kg, individual mice M1-M3
[5] = IP 2.0 mg/kg, individual mice M1-M3, 2 mg/kg
[6] = IP 2.0 mg/kg, plasma, individual mice M1-M3, 2 mg/kg
[7] = male, CD-1, mouse, plasma, ip, 2 mg/kg, Mean
[8] = male, CD-1, mouse, plasma, ip, 2 mg/kg, individual mice M1-M3
[9] = IV 2.0 mg/kg, individual mice M1-M3, 2 mg/kg
[10] = IV 2.0 mg/kg, plasma, individual mice M1-M3, 2 mg/kg
[11] = male, CD-1, mouse, plasma, iv, 2 mg/kg, Mean
[12] = male, CD-1, mouse, plasma, iv, 2 mg/kg, individual mice M1-M3

- WuXi Microsomal stability (Mouse Extraction Ratio) [1]: 0.4
- Plasma Concentration at 5.00 h ([2]; IP 2.0 mg/kg, Mean): BLQ
- Plasma Concentration at 8.00 h ([2]; IP 2.0 mg/kg, Mean): BLQ
- Plasma Concentration at 24.00 h ([2]; IP 2.0 mg/kg, Mean): BLQ
- Plasma Concentration at 8.00 h [2, 4]: BLQ
- Plasma Concentration at 24.00 h [2, 4]: BLQ
- Plasma Concentration at 0.25 h [2, 5]: 306.24 ng/mL and 169.92 ng/mL
- Plasma Concentration at 1.00 h [2, 5]: 69.88 ng/mL and 66.74 ng/mL
- Plasma Concentration at 3.00 h [2, 5]: 9.75 ng/mL and 2.05 ng/mL and BLQ
- Plasma Concentration at 5.00 h [2, 5]: BLQ
- AUCExtra ([2]; IP 2.0 mg/kg, plasma, Mean): 0.96%
- AUC0-inf [2, 6]: 197.83 ng·h/mL
- AUCExtra [2, 6]: 1.35% and 0.57%
- Cmax [2, 6]: 306.24 ng/mL and 169.92 ng/mL
- Half-life (T½) [2, 6]: 47.4 min and 22.8 min
- MRT0-last [2, 6]: 63.6 min and 40.2 min and 30 min
- Half-life (T½) ([2]; male, CD-1, mouse, plasma, intraperitoneal, 2 mg/kg, IP 2.0 mg/kg, Mean, read-out: Oral T½ (converted)): 35.4 min
- AUC [2, 7]: 170 ng·h/mL
- AUC(0-t) [2, 7]: 170 ng·h/mL
- concentration at 0.25 h [2, 7]: 228 ng/mL
- concentration at 1 h [2, 7]: 73.9 ng/mL
- concentration at 3 h [2, 7]: 5.9 ng/mL
- AUC0-inf ([2]; male, CD-1, mouse, plasma, ip, 2 mg/kg, Mean, read-out: AUC0-inf): 205 ng·h/mL
- Cmax ([2]; male, CD-1, mouse, plasma, ip, 2 mg/kg, Mean, read-out: Cmax): 228 ng/mL
- MRT last ([2]; male, CD-1, mouse, plasma, ip, 2 mg/kg, Mean, read-out: MRT0-last): 44.4 min
- concentration at 0.25 h [2, 8]: 207 ng/mL
- concentration at 1 h [2, 8]: 85.2 ng/mL
- concentration at 5 h [2, 8]: 2.52 ng/mL
- AUC0-inf ([2]; male, CD-1, mouse, plasma, ip, 2 mg/kg, individual mice M1-M3, read-out: AUC0-inf): 212 ng·h/mL
- Cmax ([2]; male, CD-1, mouse, plasma, ip, 2 mg/kg, individual mice M1-M3, read-out: Cmax): 207 ng/mL
- Tmax ([2]; male, CD-1, mouse, IP 2.0 mg/kg, plasma, individual mice M1-M3): 15 min
- Plasma Concentration at 24.00 h ([3]; IV 2.0 mg/kg, Mean): BLQ
- Plasma Concentration at 24.00 h ([3]; IV 2.0 mg/kg, individual mice M1-M3): BLQ
- Plasma Concentration at 0.08 h [3, 9]: 643.79 ng/mL and 668.53 ng/mL
- Plasma Concentration at 0.25 h [3, 9]: 361.85 ng/mL and 533.91 ng/mL
- Plasma Concentration at 1.00 h [3, 9]: 124.19 ng/mL and 132.77 ng/mL
- Plasma Concentration at 3.00 h [3, 9]: 16.88 ng/mL and 24.59 ng/mL
- Plasma Concentration at 5.00 h [3, 9]: 4.53 ng/mL and 8.17 ng/mL and 9.69 ng/mL
- Plasma Concentration at 8.00 h [3, 9]: 1.79 ng/mL and BLQ and 4.14 ng/mL
- AUCExtra ([3]; IV 2.0 mg/kg, plasma, Mean): 1.68%
- AUC0-inf [3, 10]: 451.15 ng·h/mL and 566.58 ng·h/mL
- AUC0-last [3, 10]: 441.82 ng·h/mL and 554.77 ng·h/mL
- AUCExtra [3, 10]: 0.88% and 2.07% and 2.08%
- AUCall [3, 10]: 441.82 ng·h/mL and 554.77 ng·h/mL
- C0 [3, 10]: 857.24 ng/mL and 747.58 ng/mL
- Cl [3, 10]: 73.89 mL/min/kg and 58.83 mL/min/kg
- MRT0-last [3, 10]: 52.2 min and 65.4 min
- T½ [3, 10]: 102 min and 47.4 min and 119 min
- Vd [3, 10]: 5.06 L/kg and 10.07 L/kg
- AUC [3, 11]: 497 ng·h/mL
- AUC(0-t) [3, 11]: 497 ng·h/mL
- clearance [3, 11]: 66.5 mL/min/kg
- concentration at 0.08 h [3, 11]: 638 ng/mL
- concentration at 0.25 h [3, 11]: 426 ng/mL
- concentration at 1 h [3, 11]: 146 ng/mL
- concentration at 3 h [3, 11]: 18.6 ng/mL
- concentration at 5 h [3, 11]: 7.46 ng/mL
- concentration at 8 h [3, 11]: 2.97 ng/mL
- AUC0-inf ([3]; male, CD-1, mouse, plasma, iv, 2 mg/kg, Mean, read-out: AUC0-inf): 506 ng·h/mL
- C0 ([3]; male, CD-1, mouse, plasma, iv, 2 mg/kg, Mean, read-out: C0): 786 ng/mL
- MRT last ([3]; male, CD-1, mouse, plasma, iv, 2 mg/kg, Mean, read-out: MRT0-last): 57.6 min
- half-life ([3]; male, CD-1, mouse, plasma, iv, 2 mg/kg, Mean, read-out: T½ (converted)): 89.4 min
- Vd ([3]; male, CD-1, mouse, plasma, iv, 2 mg/kg, Mean, read-out: Vd): 8.32 L/kg
- AUC [3, 12]: 496 ng·h/mL
- AUC(0-t) [3, 12]: 496 ng·h/mL
- clearance [3, 12]: 66.7 mL/min/kg
- concentration at 0.08 h [3, 12]: 601 ng/mL
- concentration at 0.25 h [3, 12]: 382 ng/mL
- concentration at 1 h [3, 12]: 181 ng/mL
- concentration at 3 h [3, 12]: 14.3 ng/mL
- AUC0-inf ([3]; male, CD-1, mouse, plasma, iv, 2 mg/kg, individual mice M1-M3, read-out: AUC0-inf): 500 ng·h/mL
- C0 ([3]; male, CD-1, mouse, plasma, iv, 2 mg/kg, individual mice M1-M3, read-out: C0): 754 ng/mL
- MRT last ([3]; male, CD-1, mouse, plasma, iv, 2 mg/kg, individual mice M1-M3, read-out: MRT0-last): 56.4 min
- Vd ([3]; male, CD-1, mouse, plasma, iv, 2 mg/kg, individual mice M1-M3, read-out: Vd): 9.82 L/kg
SMILES: COc1ccc(-c2ccc(F)cc2)cc1Nc1ncnc2[nH]nc(-c3cc[nH]n3)c12 [8168C]
- AUC0-last [2, 6]: 208.92 ng·h/mL and 196.69 ng·h/mL and 104.05 ng·h/mL
- AUCall [2, 6]: 208.92 ng·h/mL and 196.69 ng·h/mL and 104.05 ng·h/mL
